Assay results from patent US6673823B2, “Use of peroxisome proliferator activated receptor (PPAR)-γ ligands as a treatment for pituitary tumors and associated conditions, such as Cushing's syndrome” (Cedars-Sinai Medical Center, priority 2002, dated 2004).

Tests used:
[1] = system: Mouse corticotroph pituitary tumor cells (AtT20); experiment: Growth of established corticotroph tumors in athymic nude mice; assay type: in vivo; conditions: oral 150 mg/kg/day, 3 weeks
Text: The effects of TZD treatment were therefore tested on growth of already established pituitary corticotroph tumors, and steroid hormone levels in vivo. Mouse corticotroph pituitary tumor cells (AtT20) were innoculated subcutaneously in athymic nude mice, and tumors allowed to develop. […] Baseline serum ACTH and corticosterone levels, and tumor volumes were not different in the groups subsequently randomized as control or treated groups (data not shown, p=ns). […] All animals were euthanized at 6 weeks. The phenotypic appearance of the mice was strikingly different, and vehicle-treated mice were wasted, developed skin atrophy and appeared pigmented, with features of hypercorticolism (FIG. 8B).

[2] = system: AtT20 mouse pituitary (ACTH-secreting) tumor cells; experiment: Cell cycle distribution (FACS, propidium iodide); assay type: cell-based; conditions: 10^−6 to 10^−4 M, up to 48 h serum-free or up to 96 h serum-replete
Procedure: Cell Culture. […] Medium was replenished with ligands every 2 days, and cells maintained in serum-containing medium or in serum-free medium for up to 96 hours.
Cell Cycle Distribution. Following treatments, AtT20 cells were trypsinized, centrifuged (1500 rpm×2 min), washed with PBS, and treated with 20 µg/mL Rnase A (Calbiochem, La Jolla, Calif.). DNA was stained with 100 μg/mL propidium iodide (PI) for 30 min at 40° C. and protected from light, prior to analysis with a FACScan (Becton Dickinson, Franklin Lakes, N.J.). DNA histogram analysis was performed using the modFitLT software.
To determine the functional significance of pituitary corticotroph PPAR-γ expression, the effects of PPAR-γ ligands were tested on ACTH-secreting pituitary tumor cells in vitro. Troglitazone or rosiglitazone-treatment (10^−6 to 10^−4 M) for up to 48 hours, when cells were maintained in serum-free conditions, or up to 96 hours, when cells were maintained in serum-replete conditions, induced G0-G1 cell-cycle arrest (control, G1 75±4% vs. ros, G1 85±2%, p=0.009), and led to decreased S-phase cells (control, 18±0.05% vs. ros, 12±0.5%, p=0.001) (FIG. 3A).

human patients = conditions: cited from earlier work

CN(CCOc1ccc(CC2SC(=O)NC2=O)cc1)c1ccccn1 (racemic) [rosiglitazone, (±)-5-[[4-[2-(methyl-2-pyridinylamino)ethoxy]phenyl]methyl]-2,4-thiazolidinedione,(Z)-2-butenedioate]
reduction in plasma ACTH ([1]; vs. controls): 75%
reduction in serum corticosterone levels ([1]; vs. controls): 96%
plasma ACTH, mean±SEM ([1]; controls 3841±308, p=0.002): 978 ± 452 pg/mL
serum corticosterone, mean±SEM ([1]; controls 4304±2593, p<0.05): 181 ± 56 ng/mL
S-phase cells ([2]; control 18±0.05%, p=0.001): 12±0.5%
cells in G1 (G0-G1 cell-cycle arrest) ([2]; control 75±4%, p=0.009): 85±2%
tolerability in humans (human patients; About 20 milligrams per day, sustained periods of time): without adverse effects
clinical surveillance, safety (human patients; more than 4500 patients with type 2 diabetes): safe, effective
